Measured values as given in patent US20240307319A1, “IONIZABLE LIPID MOLECULE, PREPARATION METHOD THEREFOR, AND APPLICATION THEREOF IN PREPARATION OF LIPID NANOPARTICLE” (IMMORNA (HANGZHOU) BIOTECHNOLOGY CO., LTD., priority 2021, published 2024).

System: BHK cells
Experiment: Protein in vitro expression ability of eGFP mRNA lipid nanoparticle compositions in BHK cells by flow cytometer
Type: cell-based
Conditions: 24-hour co-incubation, MC3 LNP without mRNA set as 0; for Fluorescent protein expression rate (0.1 μg): 0.1 μg LNP composition with eGFP mRNA; for Fluorescent protein expression rate (0.5 μg): 0.5 μg LNP composition with eGFP mRNA
Experimental: BHK cells were from ATCC and maintained at 37° C. under 5% CO2 in Dulbecco's modified Eagle medium (HyClone) supplemented with 10% fetal bovine serum (HyClone). 0.1 μg or 0.5 μg of the lipid nanoparticle composition prepared by the ionizable lipid compound of the invention or the commercial MC3 nanoparticle composition was co-incubated with the BHK cells to deliver the mRNA nucleic acid encoding the enhanced green fluorescent protein contained therein into the BHK cells to express the corresponding protein. After 24-hour co-incubation, the cells were digested with trypsin and collected, and signal intensity of intracellular green fluorescent protein was collected using a flow cytometer. Analysis of relative protein expression rates was performed using a cell group to which the commercial MC3 nanoparticle composition not containing mRNA encoding enhanced green fluorescent protein was added as a control.
The fluorescence intensity obtained after the commercial MC3 nanoparticle composition not containing mRNA encoding enhanced green fluorescent protein was co-incubated with cells is set as the base point, with the green fluorescent protein expression rate being 0.

Row | SMILES | Fluorescent protein expression rate (0.1 μg) | Fluorescent protein expression rate (0.5 μg)
1 | CCCCCCCCCOC(=O)CCCCCCCOc1ccc(OCCCCCCCC(=O)OCCCCCCCCC)c(COC(=O)CCCN(C)C)c1 [Compound I] | 82.60% | 93.51%
2 | CCCCC/C=C\C/C=C\CCCCCCCCC(CCCCCCCC/C=C\C/C=C\CCCCC)OC(=O)CCCN(C)C [MC3, Dlin-MC3-DMA] | 95.87% | 99.99%
